Converted amounts (≈) assume the structure as drawn. The source made the active and inactive calls.

Series [1] has as its target T1, P2Y purinoceptor 14 (Homo sapiens) (UniProt Q15391).
T1 sequence (whole entry): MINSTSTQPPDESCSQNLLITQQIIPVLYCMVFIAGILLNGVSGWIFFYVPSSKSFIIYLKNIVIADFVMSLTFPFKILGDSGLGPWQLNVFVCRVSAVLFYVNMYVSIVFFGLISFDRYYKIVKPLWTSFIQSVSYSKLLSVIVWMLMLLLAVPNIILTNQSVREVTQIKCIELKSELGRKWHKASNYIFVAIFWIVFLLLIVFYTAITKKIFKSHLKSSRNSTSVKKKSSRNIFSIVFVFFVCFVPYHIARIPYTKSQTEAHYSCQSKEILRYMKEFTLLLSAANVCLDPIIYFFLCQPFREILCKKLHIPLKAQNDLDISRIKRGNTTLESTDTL

The next series concerns the target T2, P2Y purinoceptor 14 (Homo sapiens, UniProt Q15391).
T2 sequence (Q15391 whole entry): T1 sequence (whole entry)
Put plainly: Antagonist activity at P2Y14R (unknown origin) expressed in HEK293 cells assessed as inhibition of forskolin-stimulated cAMP accumulation incubated in presence of IBMX by cAMP-glo assay. The class given is functional, cell-based. (In general: Changes in cAMP serve as a functional read-out for many G protein-coupled receptors.)

In the next series the target is P2Y purinoceptor 6 (Homo sapiens, UniProt Q15077).
Series [2] in a line: Metabolic stability in human liver microsomes assessed as half life at 2 ug/ml preincubated for 5 mins followed by NADPH addition and measured upto 45 mins by LC-MS/MS analysis. The class given is ADME, Microsome. The note with it: dose 2 µg/ml, time < 50 min. Background: Liver microsomes are a subcellular fraction often used to study metabolism.
Series [3] in a line: Aqueous solubility of the compound in PBS at pH 7.4 incubated for 24 hrs by UV-3000 absorption spectrometry analysis. The class given is physicochemical. The note with it: PBS, pH 7.4.
The nature of series [4]: Aqueous solubility of the compound in double distilled water at pH 7 incubated for 24 hrs by UV-3000 absorption spectrometry analysis. The class given is physicochemical. The note with it: double distilled water, pH 7.
Series [5] in a line: Inhibition of caspase-1 mediated pyroptosis in LPS/ATP induced PMA-differentiated human THP-1 cells assessed as dead cells at 10 uM pretreated for 24 hrs followed by LPS addition for 3 hrs and further incubated for 1 hr with ATP by caspase-1/PI staining based flow cytometry analysis (reference value: 22.5%). Type of series: functional. The arrangement: scale not given: the % may be the effect or the level left. The note with it: time 28 hrs. Background: A flow cytometer gives signals particle by particle.

Series [6] is described as follows: Oral bioavailability in Sprague-Dawley rat at 10 mg/kg measured for 24 hrs. The class given is ADME, organism-based. Conditions: in vivo.
Series [7] is described as follows: Aqueous solubility of the compound in simulated intestinal fluid without trypsin at pH 6.8 incubated for 24 hrs by UV-3000 absorption spectrometry analysis. Type of series: physicochemical.
The nature of series [8]: Inhibition of caspase-1 mediated pyroptosis in LPS/ATP induced PMA-differentiated human THP-1 cells assessed as early apoptotic cells at 10 uM pretreated for 24 hrs followed by LPS addition for 3 hrs and further incubated for 1 hr with ATP by caspase-1/PI staining based flow cytometry analysis (reference value: 17.9%). Type of series: functional. Conditions: time 28 hrs. The arrangement: scale not given: the % may be the effect or the level left.

Series [9] is described as follows: Inhibition of caspase-1 mediated pyroptosis in LPS/ATP induced PMA-differentiated human THP-1 cells assessed as live cells at 10 uM pretreated for 24 hrs followed by LPS addition for 3 hrs and further incubated for 1 hr with ATP by caspase-1/PI staining based flow cytometry analysis (reference value: 43.3%). Type of series: functional. On the set-up: scale not given: the % may be the effect or the level left. Conditions: time 28 hrs.

Series [10] is described as follows: Aqueous solubility of the compound in simulated gastric fluid without pepsin at pH 1.2 incubated for 24 hrs by UV-3000 absorption spectrometry analysis. Type of series: physicochemical.
The nature of series [11]: Inhibition of caspase-1 mediated pyroptosis in LPS/ATP induced PMA-differentiated human THP-1 cells assessed as late apoptotic cells at 10 uM pretreated for 24 hrs followed by LPS addition for 3 hrs and further incubated for 1 hr with ATP by caspase-1/PI staining based flow cytometry analysis (reference value: 16.3%). The class given is functional. On the set-up: scale not given: the % may be the effect or the level left. The note with it: time 28 hrs.

The target in a further series is P2Y purinoceptor 12 (Homo sapiens, UniProt Q9H244). Nature of the series: Antagonist activity at P2Y12R (unknown origin) expressed in CHO cells assessed as inhibition of forskolin-stimulated cAMP accumulation incubated for 15 mins in presence of IBMX by chromatography. Type of series: functional, cell-based.
Series [12] has as its system Mus musculus. Nature of the series: Antiinflammatory activity in ICR mouse model of LPS-induced acute peritonitis assessed as reduction in IL-6 level in peritoneal fluid at 5 mg/kg, ip pretreated for 1 hr followed by LPS stimulation and measured after 6 hrs by qRT-PCR analysis. Type of series: functional, organism-based. Conditions: time 7.0 hrs.
For series [13], the system named is Mus musculus. Put plainly: Antiinflammatory activity in ICR mouse model of LPS-induced acute peritonitis assessed as reduction in TNF-alpha level in peritoneal fluid at 5 mg/kg, ip pretreated for 1 hr followed by LPS stimulation and measured after 6 hrs by qRT-PCR analysis. Type of series: functional, organism-based. Conditions: time 7.0 hrs.
Series [14] relates to Mus musculus. Nature of the series: Antiinflammatory activity in ICR mouse model of LPS-induced acute peritonitis assessed as reduction in IL-1beta level in peritoneal fluid at 5 mg/kg, ip pretreated for 1 hr followed by LPS stimulation and measured after 6 hrs by qRT-PCR analysis. Type of series: functional, organism-based. Conditions: time 7.0 hrs.
Where [15] appears, read: HEK293, filed as antagonist, dose 100.0 nM.

Sequence of P2Y purinoceptor 12 (Q9H244 whole entry): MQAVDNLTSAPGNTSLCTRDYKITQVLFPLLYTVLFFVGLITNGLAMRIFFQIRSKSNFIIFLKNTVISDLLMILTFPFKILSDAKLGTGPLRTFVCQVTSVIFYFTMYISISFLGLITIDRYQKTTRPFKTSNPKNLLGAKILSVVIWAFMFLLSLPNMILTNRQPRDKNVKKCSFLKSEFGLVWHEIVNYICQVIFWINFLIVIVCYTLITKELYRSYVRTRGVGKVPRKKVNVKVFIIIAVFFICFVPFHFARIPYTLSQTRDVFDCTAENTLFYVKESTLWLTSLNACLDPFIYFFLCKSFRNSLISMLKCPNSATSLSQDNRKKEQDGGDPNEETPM
Sequence of P2Y purinoceptor 6 (Q15077 whole entry): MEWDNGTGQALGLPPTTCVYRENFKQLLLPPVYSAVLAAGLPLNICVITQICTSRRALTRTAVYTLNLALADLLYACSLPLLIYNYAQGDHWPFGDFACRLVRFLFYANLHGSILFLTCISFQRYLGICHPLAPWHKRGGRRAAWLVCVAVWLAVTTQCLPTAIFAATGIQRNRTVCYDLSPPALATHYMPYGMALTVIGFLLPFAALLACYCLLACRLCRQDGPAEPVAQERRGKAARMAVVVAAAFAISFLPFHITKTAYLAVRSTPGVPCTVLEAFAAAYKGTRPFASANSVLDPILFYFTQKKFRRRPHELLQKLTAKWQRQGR

One may read the inhibition as the share of the control response that was lost under treatment. As usually defined, the IC50 is the point on the concentration scale where inhibition reaches its midpoint. In [1] (setting [15]), `Cc1ccc(C(=O)Nc2cc(C(=O)O)nn2Cc2cc(F)c(F)c(F)c2)cc1` yielded an inhibition of 90.3%. In addition, on P2Y purinoceptor 14, the IC50 was determined as 4.01 nM.
As to `S=C=Nc1cccc(NC(=S)NCCCCNC(=S)Nc2cccc(N=C=S)c2)c1`, at P2Y purinoceptor 6, the half-maximal inhibitory concentration (IC50) came out at 39500 nM.
As for `Cc1ccccc1C(=O)Nc1cc(C(=O)O)nn1Cc1ccc(F)cc1`, the inhibition in series [1] (HEK293, dose 100.0 nM) turned out to be 28.5%.
The compound `Cc1ccc(C(=O)Nc2cc(C(=O)O)nn2Cc2ccc(F)cc2)o1` yielded an inhibition in series [1] (setting [15]) of 43.6%.
Broadly, the half-life is the time needed for the level to fall by half in the phase considered. The solubility is the dissolved amount per volume that the medium holds. The term bioavailability denotes the share of a dose that reaches the circulation, judged against a reference dose that is usually intravenous. With `O=C(O)c1cc(-c2ccc(C3CCNCC3)cc2)c2ccc(-c3ccc(C(F)(F)F)cc3)cc2c1` [PPTN], the half-life at 2 ug/ml in [2] was determined as 46 min. Further, the solubility at 24 h in series [3] is less than 5 µg/mL; in [4], less than 5 µg/mL; in series [7] (simulated intestinal fluid without trypsin, pH 6.8), less than 5 µg/mL; in series [10] (simulated gastric fluid without pepsin, pH 1.2), less than 5 µg/mL. The Activity in series [5] came to 11.2%; in series [8] it was 4.68%; in series [9], 79.8%; in series [11], 4.33%. The bioavailability in [6] was determined as 5%. Besides, at P2Y purinoceptor 12, the IC50 was more than 10000 nM.
With `Cc1ccc(CC(=O)Nc2cc(C(=O)O)nn2Cc2ccc(F)cc2)cc1`, the inhibition in series [1] (HEK293, dose 100.0 nM) was 28.5%.
With `Cc1ccc(C(=O)Nc2cc(C(=O)O)nn2Cc2cc(F)cc(F)c2)cc1`, the inhibition in [1] (setting [15]) came out at 79.8%. Also, the IC50 at P2Y purinoceptor 14 is 41 nM.
Turning to `O=C(Nc1cc(C(=O)O)nn1Cc1ccc(F)cc1)c1ccncc1`, the inhibition in [1] (HEK293, dose 100.0 nM) came to 32.5%.
The same measure, in the same setting: with `O=C(O)c1cc(NC(=O)c2ccccc2F)n(Cc2ccc(F)cc2)n1` the figure was 20.1%.
For `CCc1ccc(C(=O)Nc2cc(C(=O)O)nn2Cc2ccc(F)cc2)cc1`, the inhibition in [1] (setting [15]) stood at 97.9%. Moreover, the IC50 on P2Y purinoceptor 14 is 4.65 nM.
Regarding `CC(C)(C)c1ccc(C(=O)Nc2cc(C(=O)O)nn2Cc2ccc(F)cc2)cc1`, in [1] (HEK293, dose 100.0 nM), the inhibition was determined as 3.05%.
`O=C(Nc1cc(C(=O)O)nn1Cc1ccc(F)cc1)c1ccccc1` yielded an inhibition in series [1] (setting [15]) of 77.4%.
`Cc1ccc(C(=O)Nc2cc(C(=O)O)cc(-c3ccoc3)c2)cc1`: the solubility at 24 h in series [3] amounted to 878 µg/mL (≈ 2730 µM); in [4], 77.6 µg/mL (≈ 241 µM). The solubility in series [7] (simulated gi fluid, pH 6.8, 24 h) is 471.1 µg/mL (≈ 1470 µM); in series [10] (simulated gi fluid, pH 1.2, 24 h) it was 69.1 µg/mL (≈ 215 µM).
For the compound `C[C@@H]1C[C@H]2[C@@H]3CCC4=CC(=O)C=C[C@]4(C)[C@@]3(F)[C@@H](O)C[C@]2(C)[C@@]1(O)C(=O)CO`, the outcome with Mus musculus [12], in the series with Mus musculus [13] and in the series on Mus musculus [14] was Active.
In [1] (setting [15]), `Cc1ccc(C(=O)Nc2cc(C(=O)O)nn2Cc2ccccc2C(F)(F)F)cc1` registered an inhibition of 93%. Further, the IC50 at P2Y purinoceptor 14 stood at 4.83 nM.
In [1] (HEK293, dose 100.0 nM), `N#Cc1ccc(C(=O)Nc2cc(C(=O)O)nn2Cc2ccc(F)cc2)cc1` registered an inhibition of 22.4%.

The values above are taken from ChEMBL document CHEMBL5150046, “Discovery of a Series of 5-Amide-1H-pyrazole-3-carboxyl Derivatives as Potent P2Y14R Antagonists with Anti-Inflammatory Characters” (J Med Chem, 2022).
